Measured values as given in ChEMBL document CHEMBL1201862, “PubChem BioAssay data set” (2004).
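Compound exposure: 48 hours, 5 concentrations, 96-well plates. At the GI50, growth is halved.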 The source made the active and inactive calls. Rule as the data show it: active = GI50 up to about 1.1 µM and inactive = higher.

Key:
Assay in all cases: NCI tumour cell line growth inhibition, 48 h
HL-60 = tested on: HL-60
UO-31 = tested on: UO-31
Malme-3M = tested on: Malme-3M
SK-MEL-28 = tested on: SK-MEL-28
SF-295 = tested on: SF-295
NCI-H23 = tested on: NCI-H23
UACC-257 = tested on: UACC-257
HOP-62 = tested on: HOP-62
LOX IMVI = tested on: LOX IMVI
HCT-15 = tested on: HCT-15
EKVX = tested on: EKVX
SW-620 = tested on: SW-620
TK-10 = tested on: TK-10
DU-145 = tested on: DU-145
NCI/ADR-RES = tested on: NCI/ADR-RES
NCI-H460 = tested on: NCI-H460
SK-MEL-5 = tested on: SK-MEL-5
SK-OV-3 = tested on: SK-OV-3
HCC 2998 = tested on: HCC 2998
MOLT-4 = tested on: MOLT-4

Compound	GI50 (HL-60)	GI50 (UO-31)	GI50 (Malme-3M)	GI50 (SK-MEL-28)	GI50 (SF-295)	GI50 (NCI-H23)	GI50 (UACC-257)	GI50 (HOP-62)	GI50 (LOX IMVI)	GI50 (HCT-15) [µM]	GI50 (EKVX)	GI50 (SW-620)	GI50 (TK-10)	GI50 (DU-145)	GI50 (NCI/ADR-RES)	GI50 (NCI-H460)	GI50 (SK-MEL-5)	GI50 (SK-OV-3)	GI50 (HCC 2998)	GI50 (MOLT-4)
CC1CN=C(N(Cc2ccccc2)C(=O)Nc2ccc(Cl)c(Cl)c2)S1 (configuration not stated)	> 10 µM (inactive)	25.8 µM (inactive)	99.3 µM (inactive)	26.1 µM (inactive)	> 10 µM (inactive)	43.1 µM (inactive)	32.5 µM (inactive)	87.5 µM (inactive)	21.4 µM (inactive)	15.7	53.3 µM (inactive)	43.5 µM (inactive)	32.4 µM (inactive)	42.7 µM (inactive)	21.4 µM (inactive)	35.7 µM (inactive)	23.3 µM (inactive)	52.4 µM (inactive)	> 10 µM (inactive)	> 10 µM (inactive)
Cc1ccc2cccc(-c3cccc4ccccc34)c2n1	3.33 µM (inactive)	14.3 µM (inactive)	4.63 µM (inactive)	26.6 µM (inactive)	22.9 µM (inactive)	32.9 µM (inactive)	29.9 µM (inactive)	25.2 µM (inactive)	14.9 µM (inactive)	21.7	21.4 µM (inactive)	25.2 µM (inactive)	11.3 µM (inactive)	36.8 µM (inactive)	26.1 µM (inactive)	27.5 µM (inactive)	16.1 µM (inactive)	23.7 µM (inactive)	12.1 µM (inactive)	13.2 µM (inactive)
O=C1NC(SSC2=NNC3(C(=O)N2)c2ccccc2-c2ccccc23)=NNC12c1ccccc1-c1ccccc12	> 10 µM (inactive)	> 10 µM (inactive)	> 10 µM (inactive)	> 10 µM (inactive)	> 10 µM (inactive)	> 10 µM (inactive)	> 10 µM (inactive)	> 10 µM (inactive)	> 10 µM (inactive)	> 10	> 10 µM (inactive)	> 10 µM (inactive)	> 10 µM (inactive)	> 10 µM (inactive)	> 10 µM (inactive)	> 10 µM (inactive)	> 10 µM (inactive)	> 10 µM (inactive)	> 10 µM (inactive)	> 10 µM (inactive)
COc1c(OC)c(OC)c(-c2cc(=O)c3c(OC)c(OC)c(OC)c(OC)c3o2)c(OC)c1OC	37.2 µM (inactive)	29.2 µM (inactive)	47 µM (inactive)	90.2 µM (inactive)	40.2 µM (inactive)	22.2 µM (inactive)	34.5 µM (inactive)	81.8 µM (inactive)	30.9 µM (inactive)	26.7	59.8 µM (inactive)	30 µM (inactive)	29.3 µM (inactive)	62.5 µM (inactive)	23.9 µM (inactive)	31.3 µM (inactive)	24.2 µM (inactive)	71.1 µM (inactive)	28.7 µM (inactive)	32.7 µM (inactive)
Cc1nc2c(=O)n(-c3ccccc3)c3ccccc3c2o1	> 100 µM (inactive)	> 100 µM (inactive)	> 100 µM (inactive)	> 100 µM (inactive)	> 100 µM (inactive)	> 100 µM (inactive)	> 100 µM (inactive)	> 100 µM (inactive)	> 100 µM (inactive)	> 100	> 100 µM (inactive)	> 100 µM (inactive)	> 100 µM (inactive)	> 100 µM (inactive)	> 100 µM (inactive)	> 100 µM (inactive)	> 100 µM (inactive)	> 100 µM (inactive)	> 100 µM (inactive)	> 100 µM (inactive)
O=C(/C=C1\N=C(c2ccccc2)N(c2nc3ccc(Sc4ccccc4)cc3[nH]2)C1=O)/C=C/c1ccccc1	20.8 µM (inactive)	53.3 µM (inactive)	34.7 µM (inactive)	46.5 µM (inactive)	28.2 µM (inactive)	31.6 µM (inactive)	30.8 µM (inactive)	39.7 µM (inactive)	17.4 µM (inactive)	33.1	43.4 µM (inactive)	33.9 µM (inactive)	29.2 µM (inactive)	28.1 µM (inactive)	24.4 µM (inactive)	30.2 µM (inactive)	21.5 µM (inactive)	40.9 µM (inactive)	17.4 µM (inactive)	33.3 µM (inactive)
Cc1ccc(NCCN(C)C)c2c(=O)c3cc(O)ccc3oc12	2.29 µM (inactive)	9.2 µM (inactive)	13.9 µM (inactive)	14.8 µM (inactive)	10.9 µM (inactive)	12.6 µM (inactive)	18.3 µM (inactive)	11 µM (inactive)	9.53 µM (inactive)	9.08	15.7 µM (inactive)	4.12 µM (inactive)	14.6 µM (inactive)	15.1 µM (inactive)	10.6 µM (inactive)	0.889 µM (active)	11.6 µM (inactive)	13.4 µM (inactive)	11.9 µM (inactive)	1.11 µM (active)
N/C(CCSCCSCC/C(N)=N\O)=N\O	> 100 µM (inactive)	> 100 µM (inactive)	> 100 µM (inactive)	> 100 µM (inactive)		> 100 µM (inactive)		> 100 µM (inactive)	> 100 µM (inactive)	> 100	> 100 µM (inactive)	> 100 µM (inactive)	> 100 µM (inactive)	> 100 µM (inactive)	> 100 µM (inactive)	> 100 µM (inactive)	> 100 µM (inactive)	> 100 µM (inactive)	> 100 µM (inactive)	> 100 µM (inactive)
O=c1[nH]nc(-c2ccccc2)n1/N=C/c1c[nH]c2ccccc12	> 100 µM (inactive)	> 100 µM (inactive)	> 100 µM (inactive)	> 100 µM (inactive)	> 100 µM (inactive)	> 100 µM (inactive)	> 100 µM (inactive)	> 100 µM (inactive)	58.7 µM (inactive)	> 100	> 100 µM (inactive)	> 100 µM (inactive)	17.6 µM (inactive)	> 100 µM (inactive)	> 100 µM (inactive)	> 100 µM (inactive)	> 100 µM (inactive)	> 100 µM (inactive)	> 100 µM (inactive)	> 100 µM (inactive)
CCOC(=O)C(C(=O)OCC)C(=O)c1ccccc1C(=O)c1ccccc1	> 100 µM (inactive)	> 100 µM (inactive)	> 100 µM (inactive)		> 100 µM (inactive)	> 100 µM (inactive)	> 100 µM (inactive)	> 100 µM (inactive)	> 100 µM (inactive)	> 100	26.1 µM (inactive)	19.5 µM (inactive)	> 100 µM (inactive)	43.8 µM (inactive)	> 100 µM (inactive)	> 100 µM (inactive)	97.1 µM (inactive)	> 100 µM (inactive)	> 100 µM (inactive)	23.4 µM (inactive)
OC(C/C(=N\N1CCCCC1)c1cccs1)(C(F)(F)F)C(F)(F)F	> 10 µM (inactive)	> 10 µM (inactive)	> 10 µM (inactive)	> 10 µM (inactive)	> 10 µM (inactive)	> 10 µM (inactive)	> 10 µM (inactive)	> 10 µM (inactive)	> 10 µM (inactive)	> 10	> 10 µM (inactive)	> 10 µM (inactive)	> 10 µM (inactive)	> 10 µM (inactive)	> 10 µM (inactive)	> 10 µM (inactive)	> 10 µM (inactive)	> 10 µM (inactive)	> 10 µM (inactive)	> 10 µM (inactive)
CCCC(=O)Nc1ncnc2c1ncn2C1OC2COP(=O)(O)OC2C1OC(=O)CCC (configuration not stated)	180 µM (inactive)	312 µM (inactive)	> 100 µM (inactive)	> 100 µM (inactive)	> 100 µM (inactive)	> 100 µM (inactive)	> 100 µM (inactive)	> 100 µM (inactive)	> 100 µM (inactive)	> 100	> 100 µM (inactive)	> 100 µM (inactive)	> 1000 µM (inactive)	> 100 µM (inactive)	> 100 µM (inactive)	> 100 µM (inactive)	> 100 µM (inactive)	> 100 µM (inactive)	> 100 µM (inactive)	> 100 µM (inactive)
CC1=NN2C(=N)/C(=C/c3ccccc3)C(=O)N=C2S1	> 100 µM (inactive)	> 100 µM (inactive)	> 100 µM (inactive)	> 100 µM (inactive)	> 100 µM (inactive)	> 100 µM (inactive)	> 100 µM (inactive)	> 100 µM (inactive)	> 100 µM (inactive)	> 100	> 100 µM (inactive)	> 100 µM (inactive)	> 100 µM (inactive)	> 100 µM (inactive)	> 33.1 µM (inactive)	> 100 µM (inactive)	> 100 µM (inactive)	> 100 µM (inactive)	> 100 µM (inactive)	> 100 µM (inactive)
CC(C)NC(=O)OCc1c(COC(=O)NC(C)C)c(-c2ccc[n+](COC(=O)C3CC3)c2)n2c1CCC2	29.6 µM (inactive)	41.2 µM (inactive)	> 100 µM (inactive)	> 100 µM (inactive)	45.9 µM (inactive)	29.6 µM (inactive)	> 100 µM (inactive)	49.1 µM (inactive)	38.8 µM (inactive)	87.3	> 100 µM (inactive)	> 100 µM (inactive)	> 100 µM (inactive)	37.6 µM (inactive)	47.1 µM (inactive)	24.2 µM (inactive)	> 100 µM (inactive)	49.5 µM (inactive)	> 100 µM (inactive)	14.9 µM (inactive)
